Measurements reported in US9636379B2, “Compositions and methods for treating pruritus” (Washington University, priority 2007, dated 2017).
Where no end group is shown, it is not given here.

Columns and labels:
5-HT fibers = assay: Morphine-induced scratching after 5,7-DHT; format: in vivo, mice; settings: vs saline vehicle
From the text: Repeated measures analysis of variance (ANOVA); *P<0.05, n=5-11.

GRPR [1] = format: in vivo; settings: GRPR mutant mice compared to wild-type mice
From the text: All data are presented as means±s.e.m.
FIG. 17A-C depicts scratching behavior induced by i.d. injection of histamine, endothelin-1 or 5-HT in GRPR mutant (black bars) and wild-type mice (white bars).
To ascertain whether GRPR is required for itch sensation, we studied the effects of several pruritogenic agents in GRPR mutant mice and wild-type mice.

NMBR/GRPR = format: in vivo; settings: NMBR/GRPR double knockout mice; for response to i.d. pruritogens: i.d. in 50 μl; for response to intrathecal bombesin-like peptides: GRP (1 nM), Bombesin (0.05 nM), NMB (2 nM)
Procedure: FIG. 44 depicts the itch behavior of NMBR/GRPR double knockout mice in response to 3 different bombesin-like peptides. […] GKO, GRPR mutant mice; DKO, NMBR/GRPR double KO mice.
(A), (C), (E), (G) and (I) are time course curve, while (B), (D), (F), (H) and (J) represent the total value comparisons from the same experiment. *p<0.05, **p<0.01; One-way ANOVA followed by Newman-Keuls post hoc test was used in all statistical analysis.
Histamine was injected i.d. in 50 μl at 20 μg/mouse. Compound 48/80 was injected i.d. in 50 μl at 20 μg/mouse. ET-1 was injected i.d. in 50 μl at 1 ng/mouse. […] Serotonin (5-HT) was injected i.d. in 50 μl at 1 1 nmol/μl.

NMBR = target: T1, NMBR (Mus musculus, UniProt O54799); assay: Effect of NMBR antagonist on NMB-, GRP- and chloroquine-evoked scratching; format: in vivo, mice
T1 construct: NMBR is expressed in the most superficial layer of the dorsal spinal cord; endogenous in cells; host or cells: living wild-type mice, spinal cord (intrathecal injection)
T1 sequence (O54799 1-390): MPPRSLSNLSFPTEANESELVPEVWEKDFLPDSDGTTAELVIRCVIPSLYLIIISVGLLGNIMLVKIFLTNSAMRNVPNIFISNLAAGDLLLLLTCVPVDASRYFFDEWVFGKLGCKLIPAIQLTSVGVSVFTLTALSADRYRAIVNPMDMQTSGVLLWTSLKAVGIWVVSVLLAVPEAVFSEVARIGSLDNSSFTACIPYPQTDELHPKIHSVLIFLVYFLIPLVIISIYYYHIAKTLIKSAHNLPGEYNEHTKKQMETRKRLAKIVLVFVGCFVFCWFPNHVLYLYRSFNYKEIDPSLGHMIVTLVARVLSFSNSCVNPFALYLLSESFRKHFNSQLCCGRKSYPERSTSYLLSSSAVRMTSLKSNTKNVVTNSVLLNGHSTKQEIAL
Procedure: (B) Dose response experiment depicting the NMB-evoked scratching behavior in wild type mice measured over 30 minutes after injection with 1 and 2 nmol of PD168268.
(A) Number of scratches over time. (B) Comparison of cumulative number of scratches of the results shown in (A). PD168268 was injected at 2 nmol/mouse 10 min before GRP 1 nmol/mouse. p<0.01 (p=0.0072), t test, when the data in first 5 min was compared.
(A) Number of scratches over time. (B) Comparison of cumulative number of scratches of the results shown in (A). […] One-way ANOVA followed by Newman-Keuls post hoc test.

VR1 vanilloid receptor [2] = target: T2, VR1 vanilloid receptor (Mus musculus, UniProt Q704Y3)
T2 sequence (Q704Y3 whole entry): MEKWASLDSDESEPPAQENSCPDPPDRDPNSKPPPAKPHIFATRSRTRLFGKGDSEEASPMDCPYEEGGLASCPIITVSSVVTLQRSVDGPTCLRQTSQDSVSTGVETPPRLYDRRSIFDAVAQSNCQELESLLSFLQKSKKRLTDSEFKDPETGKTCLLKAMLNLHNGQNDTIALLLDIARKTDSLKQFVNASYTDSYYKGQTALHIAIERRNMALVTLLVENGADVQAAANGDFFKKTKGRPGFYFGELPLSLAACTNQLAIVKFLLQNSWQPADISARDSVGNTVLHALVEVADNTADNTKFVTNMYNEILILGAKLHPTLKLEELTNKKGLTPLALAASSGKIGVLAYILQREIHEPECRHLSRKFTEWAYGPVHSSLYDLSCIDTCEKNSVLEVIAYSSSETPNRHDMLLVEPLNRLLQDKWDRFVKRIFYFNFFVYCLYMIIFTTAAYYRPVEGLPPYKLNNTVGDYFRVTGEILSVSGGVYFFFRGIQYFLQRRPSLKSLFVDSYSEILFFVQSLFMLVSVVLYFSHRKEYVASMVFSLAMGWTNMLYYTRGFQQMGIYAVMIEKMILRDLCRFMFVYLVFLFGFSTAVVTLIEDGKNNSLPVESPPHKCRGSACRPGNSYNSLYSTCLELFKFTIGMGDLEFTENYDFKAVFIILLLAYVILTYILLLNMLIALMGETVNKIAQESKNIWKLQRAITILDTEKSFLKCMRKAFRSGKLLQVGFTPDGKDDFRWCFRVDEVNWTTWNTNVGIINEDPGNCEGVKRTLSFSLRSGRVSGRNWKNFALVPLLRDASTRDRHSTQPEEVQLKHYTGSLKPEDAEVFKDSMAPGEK

VR1 vanilloid receptor [3] = target: T2, VR1 vanilloid receptor; assay: Depletion of primary fibers by intrathecal resiniferatoxin (immunocytochemistry); format: in vivo, mice; set-up: An approximate 80% of GRP+ neurons express TRPV1, a vanilloid receptor important for detecting thermal and chemical stimuli in the DRGs; endogenous in cells; host or cells: living mice, TRPV1+ primary afferent fibers (intrathecal RTX)
From the text: FIG. 32A-L depicts micrographs showing that peptidergic but not non-peptidergic fibers were depleted by resiniferatoxin (RTX) treatment. […] The IB4 positive non-peptidergic fibers remain the same after RTX treatment (C) compared with the control group (D). […] GRP+ fibers are almost lost in the RTX treated group (I) compared with the control group (J). TRPV1 staining is lost after RTX treatment (K) compared to the control group (L).
An approximate 80% of GRP+ neurons express TRPV1, a vanilloid receptor important for detecting thermal and chemical stimuli in the DRGs (FIG. 31). […] Non-peptidergic primary fibers labeled by IB4-FITC are normal (FIG. 32C, D). […] Motor function is not affected by the depletion of TRPV1+ primary fibers (FIG. 33B).
Mice were given resiniferatoxin (Sigma, 25 ng/5 ul) or vehicle intrathecally under isoflurane-induced anesthesia. The behavior was tested 3-5 days later.

GRPR [4] = target: T3, GRPR (Mus musculus, UniProt P21729); assay: Scratching behavior after intrathecal injection of GRPR agonist GRP18-27; format: in vivo, mice
T3 construct: GRP acts through spinal GRPR to mediate the transmission of information that drives scratching behavior; endogenous in cells; host or cells: living mice (C57BL/6J / wild-type littermates), spinal dorsal horn neurons reached by intrathecal injection
T3 sequence (P21729 whole entry): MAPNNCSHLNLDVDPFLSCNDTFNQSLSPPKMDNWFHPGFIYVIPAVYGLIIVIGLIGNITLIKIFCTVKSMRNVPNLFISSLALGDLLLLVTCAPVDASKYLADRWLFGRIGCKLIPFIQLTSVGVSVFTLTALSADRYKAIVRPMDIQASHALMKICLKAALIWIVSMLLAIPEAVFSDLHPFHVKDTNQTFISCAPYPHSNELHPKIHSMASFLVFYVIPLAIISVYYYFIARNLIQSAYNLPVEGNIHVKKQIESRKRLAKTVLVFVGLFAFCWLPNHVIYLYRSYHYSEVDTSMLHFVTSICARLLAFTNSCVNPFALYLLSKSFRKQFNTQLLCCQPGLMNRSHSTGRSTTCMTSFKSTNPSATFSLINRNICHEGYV
Procedure: (§1) FIG. 7A-E depicts graphs showing the effect of GRPR agonist and antagonist on scratching behavior. (A) Scratching behavior is monitored after intrathecal (i.t.) injection of GRP18-27 (0.03, 0.1 or 1.0 nmol/5 μl). GRP18-27 induced dose-dependent scratching behavior in wild-type mice (n=7; open circles). […] ANOVA; **P<0.01. […] ANOVA; *P<0.05.
(§2) To determine whether an activation of GRPR in the spinal cord may facilitate the transmission of itch signals, which would subsequently result in increased scratching behavior, the GRPR agonist GRP18-27 was intrathecally administered (Ladenheim et al., 1996).

GRPR [5] = target: T3, GRPR; assay: Scratching induced by i.d. pruritogenic agents after i.t. GRPR antagonist; format: in vivo, mice; settings: i.t. antagonist 10 min before i.d. injection of each pruritogenic agent; vs saline control
GRPR [6] = target: T3, GRPR; set-up: species or system mice; settings: in vivo
GRPR [7] = target: T3, GRPR; format: in vivo, mice
GRPR [8] = assay: Scratching behavior after intrathecal injection of GRPR agonist GRP18-27; format: in vivo, mice; settings: GRPR mutant mice compared with wild-type
Procedure: as §1, §2

[9] = three days after i.t. 25 ng/5 μl
[10] = antagonist 1.0 nmol i.t. vs vehicle

NCCc1c[nH]c2c(O)cc(O)cc12 [5,7-DHT]
morphine-induced scratching behavior (5-HT fibers): reduces, but does not eliminate scratching behavior

NCCc1c[nH]c2ccc(O)cc12 [5-HT, serotonin]
scratching behavior induced by i.d. injection, GRPR mutant vs wild-type mice (GRPR [1]): normal scratching behaviors
response to i.d. pruritogens (NMBR/GRPR): deficits

C[C@@](Cc1c[nH]c2ccccc12)(NC(=O)Nc1ccc([N+](=O)[O-])cc1)C(=O)NCC1(c2ccccn2)CCCCC1 [PD168268]
GRP-induced scratching behaviors (NMBR; 2 nmol/mouse 10 min before GRP 1 nmol/mouse): inhibited
NMB-induced scratching behaviors (NMBR; i.t. 1 or 2 nM/mouse 10 minutes before 2 nM/mouse of NMB, wild type mice): inhibited
chloroquine-induced scratching behaviors (NMBR; i.t. 10 minutes before i.d. chloroquine 200 μg/mouse in 50 μL): inhibited

CCN(CC)CCCC(C)Nc1ccnc2cc(Cl)ccc12 (stereo not shown) [chloroquine]
response to i.d. pruritogens (NMBR/GRPR): deficits

NCCc1c[nH]cn1 [histamine]
scratching behavior induced by i.d. injection, GRPR mutant vs wild-type mice (GRPR [1]): either not significantly affected or modestly reduced
response to i.d. pruritogens (NMBR/GRPR): deficits

C=C(C)[C@]12C[C@@H](C)[C@@]34O[C@](Cc5ccccc5)(O[C@@H]1[C@@H]3C=C(COC(=O)Cc1ccc(O)c(OC)c1)C[C@]1(O)C(=O)C(C)=C[C@@H]41)O2 [resiniferatoxin]
motor function (rotarod) (VR1 vanilloid receptor [2]; after RTX treatment): not affected
tail-flick latency (VR1 vanilloid receptor [2]; after RTX treatment): significantly increased
morphine-induced scratching behavior (VR1 vanilloid receptor [2]; mouse, in vivo): significantly reduced
GRPR expression (VR1 vanilloid receptor [3]; after RTX treatment): remains normal
GRP+ fibers (VR1 vanilloid receptor [3]; [9]): almost depleted
PKCγ (LIIi layer) (VR1 vanilloid receptor [3]; [9]): remains normal
TRPV1 signal (VR1 vanilloid receptor [3]; [9]): almost lost
non-peptidergic primary fibers labeled by IB4-FITC (VR1 vanilloid receptor [3]; [9]): normal
peptidergic fibers labeled by CGRP (VR1 vanilloid receptor [3]; [9]): largely diminished

D-Phe-6-Bn(6-13)OMe
GRP18-27-induced scratching behavior (GRPR [4]; i.t. antagonist 1.0 nmol/2.5 μl, GRP18-27 1.0 nmol/2.5 μl, vs vehicle): significantly inhibited
scratching behavior induced by i.d. pruritogenic agents (GRPR [5]): significant reduction of the scratching behavior
scratching induced by intrathecal morphine (GRPR [6]): significantly blocked
mechanical thresholds (GRPR [7]; [10]): not significantly affected
tailflick latency (GRPR [7]; [10]): comparable
analgesic effect of intrathecal morphine (GRPR [7]; morphine 0.3 nmol/5 μl, antagonist 1.0 nmol, vs vehicle): not significantly affected

GRP18-27: GRPR agonist, intrathecally administered
scratching behavior after i.t. GRP18-27 (GRPR [4]; wild-type mice, i.t. 0.03, 0.1 or 1.0 nmol/5 μl): increased scratching behavior was found in a dose-dependent manner
number of scratching behaviors after i.t. GRP18-27 (GRPR [8]): significantly lower

GRP: gastrin-releasing peptide, bombesin-like peptide given intrathecally (VPLPAGGGTVLTKMYPRGNHWAVGHLM; ends and bridges not checked; UniProt P07492 24-50, looked up)
response to intrathecal bombesin-like peptides (NMBR/GRPR): deficits

SLIGRL-NH2
scratching behavior induced by i.d. injection, GRPR mutant vs wild-type mice (GRPR [1]): significantly reduced

endothelin-1: exerts its pruritic effect through ETA receptors
scratching behavior induced by i.d. injection, GRPR mutant vs wild-type mice (GRPR [1]): normal scratching behaviors
response to i.d. pruritogens (NMBR/GRPR): deficits

neuromedin B [NMB]
response to intrathecal bombesin-like peptides (NMBR/GRPR): deficits
